Measurements reported in patent US11427595B2, “Compositions and methods for inhibiting viral infection” (Trustees of Boston University, priority 2018, dated 2022).

What was measured:
[1] = tested on: OHFV viral envelope protein-mediated entry; type: cell-based, Omsk Hemorrhagic Fever Virus (OHFV)
[2] = tested on: JEV viral envelope protein-mediated entry; type: cell-based, Japanese encephalitis virus; conditions: Huh7.5 cells, FIG. 73C
[3] = tested on: WNV viral envelope protein-mediated entry; type: cell-based, West Nile virus; conditions: Huh7.5 cells, FIG. 73C
[4] = tested on: Denv viral envelope protein-mediated entry; type: cell-based, Dengue virus; conditions: Huh7.5 cells, FIG. 73C
[5] = tested on: Zika viral envelope protein-mediated entry; type: cell-based, Zika virus; conditions: Huh7.5 cells, FIG. 73C
translation = conditions: previous studies; cited from earlier work
[6] = tested on: Dengue virus (serotype 2, Thailand 16681 strain); conditions: comparison named in the text, no data shown; cited from earlier work

Row | SMILES | % infection, OHFV envelope [1] | % infection, JEV envelope [2] | % infection, WNV envelope [3] | % infection, Denv envelope [4] | % infection, Zika envelope [5] | translation inhibition (in words) (translation) | inhibition of Dengue virus infection [6]
1 | COc1ccc([C@@]23Oc4cc(OC)cc(OC)c4[C@]2(O)C2=C(C(=O)N4CCC[C@H]4N2)[C@H]3c2ccccc2)cc1 [compound 5, aglaiastatin] | under 1% | under 1% | under 1% | under 1% | under 1% | promising translation inhibitor | 
2 | COc1ccc([C@@]23Oc4cc(OC)cc(OC)c4[C@]2(O)[C@H](O)[C@H](C(=O)N(C)C)[C@H]3c2ccccc2)cc1 [rocaglamide] |  |  |  |  |  |  | inhibited Dengue virus infection
